Results taken from patent US7820196B2, “Physiologically active agents containing vicinal dithioglycols and use thereof in various branches of economy” (priority 1999, dated 2010).

Tests used:
broilers = assay: Example 5: broilers fed basic ration plus Unithiol; assay type: in vivo
Procedure: A full-ration mixed-fodder was checked for the absence of pathogens and used for feeding broilers. Thirty 15 days broilers were divided into one control and 4 experimental groups having 6 chickens each (3 male and 3 female chickens). Poultry were kept in a four-deck pen. The conditions of feeding such as the basic ration (BR) and the addition of Unithiol according to the protocol were as follows:
Experimental group 1: BR+1.3 mg of “Unithiol” per 1 kg of the body weight;
Experimental group 2: BR+1.7 mg of “Unithiol” per 1 kg of the body weight;
Experimental group 3: BR+2.1 mg of “Unithiol” per 1 kg of the body weight;
Experimental group 4: BR+2.5 mg of “Unithiol” per 1 kg of the body weight.
Feeding was performed in accordance with experimental protocol; broilers received water ad libitum; the experiment was carried out for 42 days.

broiler chickens = assay: Example 6: effect of unithiol on productivity and meat quality of broiler chickens; assay type: in vivo; parameters: average daily gain: unit not given here
Procedure: An experiment was conducted, on the inventors' initiative, on the experimental base of the All-Russia research and technological institute for aviculture (VNITIP) during which a study was given to the following tasks: • determination of an effect produced by unithiol (DMPS) on the productivity and meat quality of broiler chickens; • effect produced by unithiol on the accumulation of heavy metal compounds (mercury, cadmium, lead) in various tissues of poultry.
The experiment was carried out in a vivarium on broiler chickens of one cross. Poultry was grown in cell batteries from one day to six-week age. The operating parameters and feeding level met the recommendation VNITIP 1999. The experiment was conducted according to the diagram on Table 1.
The poultry population: 1 and 2 groups, 35 heads each; 3,4,5 groups—6 heads each.
1. Chicks' individual live weight; weighing at the age of one day, 2-, 4-, 6 weeks.
2. Average daily live weight increase of the broilers over a 6-week period.
3. Safety of the poultry population, the daily record keeping of the broilers lost, with the causes of murrain established.
4. Feathering conditions, individual evaluation.
5. Feed consumption over a period of growing by way of the daily record keeping and weighing of specifies feed for each and every group, as calculated per head and per kg of live weight increase.
6. Dressed small carcass mass, individually weighing in slaughtering at the age of 6 weeks.
7. Dressed yield of meat as calculated.
8. Classification of small carcasses according to GOST 25391-82.
9. Meat qualities by way of anatomically dressing the small carcasses of broilers.
10. Chemical meat composition on terms of a dry substance.
12. Fatty acid meat composition.

[1] = about 1.7 mg Unithiol per 1 kg of body weight in ration
[2] = Group 2: BR + 17 mg unithiol/kg feed days 15-42
[3] = Group 4: BR + heavy metals + 17 mg unithiol/kg feed, both days 15-42
[4] = Group 5: BR + heavy metals days 15-35, 34 mg unithiol/kg feed days 36-42
[5] = age 4 weeks, Group 2: BR + 17 mg unithiol/kg feed days 15-42
[6] = age 4 weeks, Group 4: BR + heavy metals + 17 mg unithiol/kg feed, both days 15-42
[7] = age 6 weeks, Group 2: BR + 17 mg unithiol/kg feed days 15-42
[8] = age 6 weeks, Group 4: BR + heavy metals + 17 mg unithiol/kg feed, both days 15-42
[9] = age 6 weeks, Group 5: BR + heavy metals days 15-35, 34 mg unithiol/kg feed days 36-42

O=S(=O)([O-])CC(S)CS.[Na+] (stereo not shown) [Unithiol, Sodium 2,3-Dimercaptopropane sulfonate]
feathering condition (broilers; Unithiol in ration): Feathering condition improvement | fodder consumption (broilers; Unithiol in ration): increased fodder consumption | average weight gain (broilers; [1]): up to 35.8 g per day | gain rate, % from that in the control group (broilers; [1]): 145.9% | growth stimulating effect (broilers; about 1.7 mg per 1 kg of body weight in ration, beginning from the 15th day): growth stimulating effect | level of cadmium, zinc, lead and copper in meat and liver, lower than control group (broilers; experimental groups, 1.3-2.5 mg Unithiol per kg body weight): about 1.5 times | feathering conditions (broiler chickens; 2nd group): best value of feathering conditions | feed remuneration with products (broiler chickens; 4th and 5th groups, unithiol as additive in feed): improved feed remuneration with products | organoleptic indices of meat (taste, organoleptic qualities of broths) (broiler chickens; 5nd group, unithiol additionally to feed): highest value as to organoleptic indices | rates of growth (broiler chickens; Group 2: 17 mg/kg of feed since 2-week age): higher rates of growth | Dressed carcasses, weight (broiler chickens; [2]): 1310 gr | Feed consumption per head (broiler chickens; [2]): 3670 gr | Feed consumption per kg of gain in live weight (broiler chickens; [2]): 1.98 kg | Inflamed sores (broiler chickens; [2]): 14.2% | Meat category 1 (broiler chickens; [2]): 88.6% | Meat category 2 (broiler chickens; [2]): 11.4% | Meat yield (broiler chickens; [2]): 69.3% | chemical meat composition: Ash (broiler chickens; [2]): 0.99% | chemical meat composition: Dry substance (broiler chickens; [2]): 28.46% | chemical meat composition: Fat (broiler chickens; [2]): 7.79% | chemical meat composition: Protein (broiler chickens; [2]): 19.68% | chemical meat composition: Water (broiler chickens; [2]): 70.4% | fatty acid meat composition: Fatty acids (total) (broiler chickens; [2]): 29.58 mg per 100 gr of product | fatty acid meat composition: Heptadecanoic (broiler chickens; [2]): 0.24 mg per 100 gr of product | fatty acid meat composition: Heptadecynoic (broiler chickens; [2]): 0.14 mg per 100 gr of product | fatty acid meat composition: Isomyristic (broiler chickens; [2]): 0.16 mg per 100 gr of product | fatty acid meat composition: Isopentadecanoic (broiler chickens; [2]): 0.14 mg per 100 gr of product | fatty acid meat composition: Linoleic (broiler chickens; [2]): 6.41 mg per 100 gr of product | fatty acid meat composition: Linolenic (broiler chickens; [2]): 0.29 mg per 100 gr of product | fatty acid meat composition: Myristic (broiler chickens; [2]): 0.22 mg per 100 gr of product | fatty acid meat composition: Oleic (broiler chickens; [2]): 0.13 mg per 100 gr of product | fatty acid meat composition: Palmitic (broiler chickens; [2]): 7.05 mg per 100 gr of product | fatty acid meat composition: Palmitoleic (broiler chickens; [2]): 2.25 mg per 100 gr of product | fatty acid meat composition: Pentadecanoic (broiler chickens; [2]): 0.12 mg per 100 gr of product | fatty acid meat composition: Polyunsaturated (broiler chickens; [2]): 6.70 mg per 100 gr of product | fatty acid meat composition: Saturated and monounsaturated (broiler chickens; [2]): 22.88 mg per 100 gr of product | fatty acid meat composition: Stearic (broiler chickens; [2]): 2.44 mg per 100 gr of product | Dressed carcasses, weight (broiler chickens; [3]): 1217 gr | Feed consumption per head (broiler chickens; [3]): 3750 gr | Feed consumption per kg of gain in live weight (broiler chickens; [3]): 2.13 kg | Meat category 1 (broiler chickens; [3]): 66.7% | Meat category 2 (broiler chickens; [3]): 33.3% | Meat yield (broiler chickens; [3]): 67.6% | chemical meat composition: Ash (broiler chickens; [3]): 1.07% | chemical meat composition: Dry substance (broiler chickens; [3]): 25.71% | chemical meat composition: Fat (broiler chickens; [3]): 2.72% | chemical meat composition: Protein (broiler chickens; [3]): 21.92% | chemical meat composition: Water (broiler chickens; [3]): 73.0% | fatty acid meat composition: Fatty acids (total) (broiler chickens; [3]): 26.96 mg per 100 gr of product | fatty acid meat composition: Heptadecanoic (broiler chickens; [3]): 0.41 mg per 100 gr of product | fatty acid meat composition: Heptadecynoic (broiler chickens; [3]): 0.11 mg per 100 gr of product | fatty acid meat composition: Isomyristic (broiler chickens; [3]): 0.06 mg per 100 gr of product | fatty acid meat composition: Isopentadecanoic (broiler chickens; [3]): 0.03 mg per 100 gr of product | fatty acid meat composition: Linoleic (broiler chickens; [3]): 6.30 mg per 100 gr of product | fatty acid meat composition: Linolenic (broiler chickens; [3]): 0.25 mg per 100 gr of product | fatty acid meat composition: Myristic (broiler chickens; [3]): 0.15 mg per 100 gr of product | fatty acid meat composition: Oleic (broiler chickens; [3]): 8.39 mg per 100 gr of product | fatty acid meat composition: Palmitic (broiler chickens; [3]): 6.13 mg per 100 gr of product | fatty acid meat composition: Palmitoleic (broiler chickens; [3]): 1.71 mg per 100 gr of product | fatty acid meat composition: Pentadecanoic (broiler chickens; [3]): 0.05 mg per 100 gr of product | fatty acid meat composition: Polyunsaturated (broiler chickens; [3]): 6.55 mg per 100 gr of product | fatty acid meat composition: Saturated and monounsaturated (broiler chickens; [3]): 20.41 mg per 100 gr of product | fatty acid meat composition: Stearic (broiler chickens; [3]): 3.37 mg per 100 gr of product | Dressed carcasses, weight (broiler chickens; [4]): 1215 gr | Feed consumption per head (broiler chickens; [4]): 3780 gr | Feed consumption per kg of gain in live weight (broiler chickens; [4]): 2.17 kg | Meat category 1 (broiler chickens; [4]): 60.0% | Meat category 2 (broiler chickens; [4]): 40.0% | Meat yield (broiler chickens; [4]): 68.3% | chemical meat composition: Ash (broiler chickens; [4]): 1.14% | chemical meat composition: Dry substance (broiler chickens; [4]): 25.18% | chemical meat composition: Fat (broiler chickens; [4]): 2.52% | chemical meat composition: Protein (broiler chickens; [4]): 21.52% | chemical meat composition: Water (broiler chickens; [4]): 73.28% | fatty acid meat composition: Fatty acids (total) (broiler chickens; [4]): 26.71 mg per 100 gr of product | fatty acid meat composition: Heptadecanoic (broiler chickens; [4]): 0.14 mg per 100 gr of product | fatty acid meat composition: Heptadecynoic (broiler chickens; [4]): 0.08 mg per 100 gr of product | fatty acid meat composition: Isomyristic (broiler chickens; [4]): 0.06 mg per 100 gr of product | fatty acid meat composition: Isopentadecanoic (broiler chickens; [4]): 0.06 mg per 100 gr of product | fatty acid meat composition: Linoleic (broiler chickens; [4]): 6.54 mg per 100 gr of product | fatty acid meat composition: Linolenic (broiler chickens; [4]): 0.18 mg per 100 gr of product | fatty acid meat composition: Myristic (broiler chickens; [4]): 1.29 mg per 100 gr of product | fatty acid meat composition: Oleic (broiler chickens; [4]): 7.40 mg per 100 gr of product | fatty acid meat composition: Palmitic (broiler chickens; [4]): 5.73 mg per 100 gr of product | fatty acid meat composition: Palmitoleic (broiler chickens; [4]): 1.59 mg per 100 gr of product | fatty acid meat composition: Pentadecanoic (broiler chickens; [4]): 0.07 mg per 100 gr of product | fatty acid meat composition: Polyunsaturated (broiler chickens; [4]): 6.72 mg per 100 gr of product | fatty acid meat composition: Saturated and monounsaturated (broiler chickens; [4]): 19.99 mg per 100 gr of product | fatty acid meat composition: Stearic (broiler chickens; [4]): 3.57 mg per 100 gr of product | average daily gain (broiler chickens; age 1-6 weeks, Group 2: BR + 17 mg unithiol/kg feed days 15-42): 44.0 | average daily gain (broiler chickens; age 1-6 weeks, Group 4: BR + heavy metals + 17 mg unithiol/kg feed, both days 15-42): 41.8 | average daily gain (broiler chickens; age 1-6 weeks, Group 5: BR + heavy metals days 15-35, 34 mg unithiol/kg feed days 36-42): 41.4 | average daily gain (broiler chickens; age 2-4 weeks, Group 2: BR + 17 mg unithiol/kg feed days 15-42): 47.1 | average daily gain (broiler chickens; age 2-4 weeks, Group 4: BR + heavy metals + 17 mg unithiol/kg feed, both days 15-42): 42.7 | average daily gain (broiler chickens; age 4-6 weeks, Group 2: BR + 17 mg unithiol/kg feed days 15-42): 64.1 | average daily gain (broiler chickens; age 4-6 weeks, Group 4: BR + heavy metals + 17 mg unithiol/kg feed, both days 15-42): 62.1 | average daily gain (broiler chickens; age 4-6 weeks, Group 5: BR + heavy metals days 15-35, 34 mg unithiol/kg feed days 36-42): 64.2 | live weight (broiler chickens; [5]): 993.4 grams | safety of the poultry population (broiler chickens; [5]): 100% | live weight (broiler chickens; [6]): 930.0 grams | safety of the poultry population (broiler chickens; [6]): 100% | live weight (broiler chickens; [7]): 1890.5 grams | safety of the poultry population (broiler chickens; [7]): 100% | live weight (broiler chickens; [8]): 1880.0 grams | safety of the poultry population (broiler chickens; [8]): 100% | live weight (broiler chickens; [9]): 1780.0 grams | safety of the poultry population (broiler chickens; [9]): 83.3% | dressed yield of meat and fatness (broiler chickens; application of unithiol): highest level of the dressed yield of meat and also good fatness | chemical and fatty acid meat composition (broiler chickens; unithiol in the composition of feed): increased polyunsaturated fatty acid content in chicken meat
